Like-named read-outs stand apart in the source and are kept apart here.
What was measured:
[1] = tested on: A375 (a human melanoma) cell line; assay: MTT cytotoxicity assay, A375; format: cell-based; settings: for IC50: read-out: Cytotoxicity (IC50 ± SEM) against A375
Description: (§1) In this study, A375 (a human melanoma), HT29 (a human colon adenocarcinoma), and HFF (a human foreskin fibroblast) cell lines were provided from the Pasteur Institute (Iran). […] 10 mM stock solutions of compounds were prepared in DMSO and diluted in a fresh medium for use. The final concentration of DMSO never exceeded 0.1% (v/v). […] Then the medium was replaced with the respective medium containing ligands or Tl(III) complexes at different concentrations and incubated for 48 h. 10 μL of MTT was added and the medium was removed after 4 h of incubation. Finally, the violet crystal was solubilized in 100 μL DMSO and the absorbance was measured at 570 nm. IC50 value was measured by the standard method. The evaluations were carried out in triplicate[21],[23].

[2] = tested on: HT29 (a human colon adenocarcinoma) cell line; assay: MTT cytotoxicity assay, HT29; format: cell-based; settings: for IC50: read-out: Cytotoxicity (IC50 ± SEM) against HT29
Description: as §1

[3] = tested on: HFF (a human foreskin fibroblast) cell line; assay: MTT cytotoxicity assay, HFF; format: cell-based; settings: MTT, 48 h; read-out: Cytotoxicity (IC50 ± SEM) against HFF
Description: as §1

[4] = MTT cytotoxicity assay, HFF; format: cell-based, human; settings: human
Description: as §1

A375 cells [5] = assay: Intracellular ROS (H2DCF-DA, flow cytometry), A375; format: cell-based, human; settings: A375, IC50 concentrations, 24 h
Description: (§2) The generation of intracellular ROS was evaluated by reactive oxygen species assay kit. 2 mL of A375 cells (1 × 10^6 cells/mL) were induced with C1–C3 (at IC50 concentrations) at 37 °C for 24 h, serum-free medium washed twice. Then, the cells were incubated in 2 mL of serum-free medium containing H2DCF-DA (2 μM) for 30 min at 37 °C, serum-free medium washed twice. Cells were collected and assayed by flow cytometer with excitation wavelength at 489 nm and emission wavelength at 524 nm, and ten thousand events were collected. The DCF fluorescence peak for this cell sample was evaluated and data were analyzed by FlowJo software. This test was performed as explained on HFF cells treatment to C3 (at the highest concentration)[38].

p53 = assay: Western blot, p53 in A375 cells; format: cell-based, human; settings: A375, IC50 concentrations, 24 h
Description: (§3) After incubation with C1 and C3 at IC50 concentrations for 24 h, A375 cells were harvested and lysed in 150 μL of lysis buffer (149 μL RIPA and 1 μL PMSF), and then placed on ice for 15 min. Total proteins were extracted by centrifuging the cell sample at 10,000 rpm and 4 °C for 10 min. Then about 50 μg of purified proteins were mixed with an equal volume of electrophoresis sample buffer, and the mixture was heated for 10 min. Meanwhile, the equal protein content from the control cells was prepared in the same way. The cell sample (10 μL) was loaded onto 10% SDS-PAGE gels and then transferred onto a microporous polyvinylidene difluoride (PVDF) membrane. The membrane was blocked with 5% BSA in TBST buffer for more than 2 h. After the removal of TBST buffer, membranes were incubated with an appropriate dilution of specific primary antibodies in TBST overnight at 4 °C and then washed with TBST three times. The membranes were incubated with secondary antibodies for 1 h and washed with TBST. The immunoreactive signals were detected using an enhanced chemo-luminance kit (Pierce ECL Western Blotting Substrate) following the procedures given in the user manual[46],[63].

HFF cells [6] = assay: Intracellular ROS (H2DCF-DA, flow cytometry), HFF; format: cell-based, human; settings: highest concentration, 24 h, compared with A375
Description: as §2

A375 cells [7] = assay: Cell cycle analysis (PI, flow cytometry), A375; format: cell-based, human; settings: A375, IC50 concentrations, 24 h; with respect to untreated control cells
Description: (§4) A375 cells were seeded in 6-well plates with 1.5 × 10^6 cells /well and treated with the C1 and C3 at IC50 concentrations for 24 h. Cells were trypsinized, collected, and fixed in ice-cold 75% ethanol at − 20 °C overnight. After centrifugation, the fixed cells were rinsed with ice-cold phosphate-buffered saline (PBS) and resuspended in 0.5 mL of PBS containing 100 μg/mL DNase-free RNase A (Thermo Fisher Scientific Biosciences GmbH, St. Leon-Rot, Germany), 50 μg/mL propidium iodide (PI; Sigma Aldrich) in the dark for 30 min. The distribution of the cells in different phases of the cell cycle was determined using flow cytometry (Attune Nxt, Thermo Fisher Scientific-US) and FlowJo software v10.6.1 (https://www.flowjo.com/solutions/flowjo/downloads) was used to analyze the data. This test was performed as explained on HFF cells treatment to C3 (at the highest concentration)[62].

A375 cells [8] = assay: Cellular uptake of Tl (ICP-MS), A375; format: cell-based, human; settings: 10 μM, 24 h
Description: A375 cells (1 × 10^7 cells) were treated with 10 μM C1–C3 and Tl(NO3)3.3H2O, respectively, for 24 h at 37 °C, 5% CO2, and 95% air. Cold PBS (phosphate buffer, pH = 7.4) was used for rinsing the cells three times after being collected. Cells were lysed in 1 M NaOH (1 mL) and diluted with 2% (v/v) HNO3 (5 mL) to determine whole-cell thallium content. The amount of thallium taken up by the cells was measured by ICP-MS. The instrument calibrates thallium using a standard solution containing 10, 50, 100, 500, and 1000 ppb thallium. This test was performed as explained on HFF cells treatment to C3[38].

procaspase-9 = assay: Western blot, procaspase-9 in A375 cells; format: cell-based, human; settings: A375, IC50 concentrations, 24 h, densitometry
Description: as §3

Bax/Bcl-2 = assay: Western blot, Bax/Bcl-2 ratio in A375 cells; format: cell-based, human; settings: A375, IC50 concentrations, 24 h
Description: as §3

HFF cells [9] = assay: Mitochondrial membrane potential assay (JC-1), HFF; format: cell-based, human; settings: highest concentration, JC-1, 24 h
Description: (§5) Mitochondrial membrane potential analysis was determined by fluorescent dye JC-1 staining according to the manufacturer's protocol for the JC-1 assay kit. In brief, 2 mL of A375 cells (1 × 10^5 cells/mL) were treated with IC50 concentrations of C1 and C3 in 6-well plates for […]. Cells were harvested and washed three times with PBS after 24 h of incubation. Then cells were stained with 1 mL of JC-1 stock solution (10 mg/mL). Assays were initiated by incubating A375 cells with JC-1 for 30 min at 37 °C in the dark and detected with a fluorescence microscope. This test was performed as explained on HFF cells treatment to C3 (at the highest concentration).

A375 cells [10] = assay: Mitochondrial membrane potential assay (JC-1), A375; format: cell-based, human; settings: A375, IC50 concentrations, JC-1, 24 h
Description: as §5

[11] = Cyclic voltammetry of the complexes; format: physicochemical; settings: versus Ag/AgCl, KCl 0.1 M, GCE, scan rate 50 V/s
Text: The electrochemical behavior of the complexes and also their ligands was studied by the cyclic voltammograms in the potential range of + 1.5 to –1.5 V and a scan rate of 50 Vs^–1. […] Redox couples at E^0ˊ 0.109, –0.051, and 0.244 V were obtained for C1, C2, and C3, respectively. The electrochemical oxidation of all three complexes seems be a one-stage process which includes irreversible couples with EC = –0.363 V, EA = 0.472 V for C1, EC = –0.271 V, EA = 0.220 V for C2 and EC = –0.337 V, EA = 0.581 V for C3. The peaks can be interpreted according to the Tl(III)/Tl(I) redox system for complexes. […] Therefore, redox couples are related to only the metal centers in complexes[27],[28].
Figure 4 Cyclic voltammogram of complexes c = 4 × 10^–3 mol/dm^3 in H2O medium, KCl (0.1 M) at GCE, scan rate 50 V/s.
Pyridine-2,6-dicarboxylic acid, 4-hydroxy-pyridine-2,6-dicarboxylic acid, 2-aminobenzimidazole, 4-aminopyridine, and thallium(III) nitrate trihydrate were purchased from the commercial sources and were used as received. The solvents were distilled for all synthetic works. Melting points were obtained on an Electrothermal IA-9100 apparatus. The FT-IR spectra were recorded on a Bruker Vector 22 FT-IR spectrometer using KBr pellets. Electronic spectra were recorded on Specord 210, Analytik Jena spectrophotometer in the range of 200–900 nm at room temperature. The ^1HNMR spectra were obtained from Bruker Ultrashield 400 spectrometer. Microanalyses (C, H, N) were measured with a Perkin-Elmer 2004(II) elemental analyzer. Electrochemical experiments were performed using a µAUTOLAB modular electrochemical system (ECO Chemie, Utrecht, the Netherlands) equipped with a PGSTAT type III module driven by GPES software in conjunction with a conventional three-electrode system an Ag/AgCl/3 M KCl and platinum wire as reference and counter electrode respectively and a GC as the working electrode.

A375 cells [12] = assay: Apoptosis by Annexin-V/PI staining; format: cell-based, human; settings: A375, IC50 concentrations, 24 h
Description: Annexin V-FITC and PI staining (Annexin V/PI) apoptosis detection kit were used for assessing the percentage of dead cells by apoptosis pathway. Briefly, A375 cells were treated with C1 and C3 at IC50 concentrations. After 24 h of incubation, cells were washed with PBS, trypsinized, centrifuged, and re-suspended in 100 μL binding buffer at a concentration of 1 × 10^6 cells/mL, then added 5 μL of annexin V-FITC conjugate (30 min), and 5 μL of Propidium Iodide (PI) to each cell suspension (20 min) in the dark. The samples were analyzed using a flow cytometer (Attune Nxt, Thermo Fisher Scientific-US), and the results were assessed using the FlowJo software.

HFF cells [13] = assay: Cell cycle analysis (PI, flow cytometry), HFF; format: cell-based, human; settings: highest concentration, 24 h
Description: as §4

[14] = MTT, 48 h, concentration not given

Compound: O=C1[O][Pt]2([NH][C@@H]3CCCC[C@H]3[NH]2)[O]C1=O [Oxaliplatin, reference compound]
- IC50 ([1]; MTT, 48 h): 331 ± 2.69 µM
- IC50 ([2]; MTT, 48 h): 323.1 ± 2.87 µM
- IC50 [3]: 429.2 ± 2.32 µM

Compound: Nc1nc2ccccc2[nH]1 [2-ab, 2-aminobenzimidazole]
- IC50 ([1]; Homo sapiens, A-375, 48 h): > 500 µM
- IC50 ([2]; Homo sapiens, HT-29, 48 h): > 500 µM
- IC50 at 48 h [4]: > 500 µM

Compound: (4-apyH)[Tl(pydc)(pydcH)2]0.5H2O [C3]
- ROS level (DCF oxidation), more effective than vehicle control-treated (A375 cells [5]): 229.4%
- level of p53 (p53): significantly enhanced
- Viability inhibition, A375 [1, 14]: 69.62%
- IC50 ([1]; MTT, 48 h): 7.23 ± 0.93 µM
- Viability inhibition, HT29 [2, 14]: 53.12%
- IC50 ([2]; MTT, 48 h): 193.2 ± 1.12 µM
- production of ROS in HFF cells (HFF cells [6]): much less than what was produced in cancer cells of A375
- IC50 [3]: > 500 µM
- rise in the cellular population of the G2-M phase (A375 cells [7]): 21.10%
- permeation in A375 cells relative to normal (HFF) cells (A375 cells [8]): almost two times more than normal cells
- procaspase-9 level compared to control (procaspase-9): 110.97%
- ratio of Bax/Bcl-2 (Bax/Bcl-2): 5.25 fold
- changes in MMP of HFF cells (HFF cells [9]): insignificant changes
- mitochondrial membrane potential (MMP) in A375 cells (A375 cells [10]): MMP reduction
- formal potential E0' ([11]; 4 × 10^–3 mol/dm^3 in H2O): 0.244 V
- EA (anodic peak potential) ([11]; H2O): 0.581 V
- EC (cathodic peak potential) ([11]; H2O): –0.337 V
- apoptosis, more effective than vehicle control-treated (A375 cells [12]): 61.66%
- early apoptosis (annexin V+/PI-, Q3) (A375 cells [12]): 11.47%
- late apoptosis (annexin V+/PI+, Q2) (A375 cells [12]): 50.19%
- effect on cell cycle distribution in HFF cells (HFF cells [13]): does not have a remarkable effect on the cellular population in none of the phases

Compound: O=C(O)c1cc(O)cc(C(=O)O)n1 [hpydcH2, 4-hydroxy-pyridine-2,6-dicarboxylic acid]
- IC50 ([1]; Homo sapiens, A-375, MTT, 48 h): > 500 µM
- IC50 ([2]; Homo sapiens, HT-29, MTT, 48 h): > 500 µM
- IC50 ([4]; MTT, 48 h, read-out: Cytotoxicity (IC50 ± SEM) against HFF): > 500 µM

From article PMC8333620, “Novel Tl(III) complexes containing pyridine-2,6-dicarboxylate derivatives with selective anticancer activity through inducing mitochondria-mediated apoptosis in A375 cells” (Scientific Reports, 2021)
